Laboratory results taken from paper PMC6957262 (Bioorganic & medicinal chemistry letters, 2015).

Each compound was assayed against T1, hTRPV1 (Homo sapiens, UniProt Q8NER1) (assay: hTRPV1 antagonism of pH activation). Details: heat (45 °C), NADA.
Type: cell-based

T1 sequence (Q8NER1 whole entry): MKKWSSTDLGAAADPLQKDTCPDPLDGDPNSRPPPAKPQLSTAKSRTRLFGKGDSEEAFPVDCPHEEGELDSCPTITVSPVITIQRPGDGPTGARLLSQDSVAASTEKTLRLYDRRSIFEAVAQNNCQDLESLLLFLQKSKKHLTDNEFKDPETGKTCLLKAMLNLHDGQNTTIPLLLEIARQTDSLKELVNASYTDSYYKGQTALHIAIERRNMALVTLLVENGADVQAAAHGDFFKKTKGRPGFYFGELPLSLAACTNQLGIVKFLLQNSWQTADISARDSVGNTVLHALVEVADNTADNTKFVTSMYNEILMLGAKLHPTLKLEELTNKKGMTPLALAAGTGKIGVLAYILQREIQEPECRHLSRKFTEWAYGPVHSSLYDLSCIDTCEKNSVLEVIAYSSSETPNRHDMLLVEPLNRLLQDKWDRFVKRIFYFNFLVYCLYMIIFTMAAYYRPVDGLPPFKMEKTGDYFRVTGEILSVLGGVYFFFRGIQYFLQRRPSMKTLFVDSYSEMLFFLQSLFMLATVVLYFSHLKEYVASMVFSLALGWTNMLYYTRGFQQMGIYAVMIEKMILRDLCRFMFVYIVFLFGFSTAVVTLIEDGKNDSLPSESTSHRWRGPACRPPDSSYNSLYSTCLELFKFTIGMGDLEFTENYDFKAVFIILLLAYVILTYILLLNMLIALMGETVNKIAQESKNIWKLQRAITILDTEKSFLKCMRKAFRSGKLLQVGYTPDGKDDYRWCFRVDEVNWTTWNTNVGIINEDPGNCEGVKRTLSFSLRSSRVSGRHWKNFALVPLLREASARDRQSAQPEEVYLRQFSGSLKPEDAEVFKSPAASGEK

Row | Compound | fold weaker potency toward the other activators compared to 1
1 | Cc1cccc(C(C(=O)NCc2ccc(C(F)(F)F)nc2N2CCC(C)CC2)c2ccc(NS(C)(=O)=O)c(F)c2)c1 (stereo not drawn) [Compound 34] | 5–15 fold

The compounds below were run against T1, hTRPV1 (assay: hTRPV1 antagonism of capsaicin). Details: improvement over parent 1.
Type: cell-based

Row | Compound | fold more potent than parent 1 [fold]
2 | Cc1cccc(C(C(=O)NCc2ccc(C(F)(F)F)nc2N2CCC(C)CC2)c2ccc(NS(C)(=O)=O)c(F)c2)c1 (stereo not drawn) [Compound 34] | 3

Same assay, conditions: less potent than parent

Row | Compound | fold loss in antagonistic potency compared to the corresponding parent (1 or 2)
3 | Cc1ccccc1C(C(=O)NCc1ccc(C(F)(F)F)nc1N1CCC(C)CC1)c1ccc(NS(C)(=O)=O)c(F)c1 (stereo not drawn) [Compound 32] | > 140 fold
4 | CC1CCN(c2nc(C(F)(F)F)ccc2CNC(=O)C(c2ccc(NS(C)(=O)=O)c(F)c2)C2CCCCC2)CC1 (stereo not drawn) [Compound 24] | > 100 fold
5 | Cc1cccc(C(C(=O)NCc2ccc(C(F)(F)F)nc2SC2CCCCC2)c2ccc(NS(C)(=O)=O)c(F)c2)c1 (stereo not drawn) [Compound 35] | 60 fold
6 | CS(=O)(=O)Nc1ccc(C(C(=O)NCc2ccc(C(F)(F)F)nc2SC2CCCCC2)C2CCCCC2)cc1F (stereo not drawn) [Compound 25] | > 100 fold
7 | CCC(C(=O)NCc1ccc(C(F)(F)F)nc1N1CCC(C)CC1)c1ccc(NS(C)(=O)=O)c(F)c1 (stereo not drawn) [Compound 21] | 5 fold
8 | CC1CCN(c2nc(C(F)(F)F)ccc2CNC(=O)C(c2ccc(NS(C)(=O)=O)c(F)c2)C2CCCC2)CC1 (stereo not drawn) [Compound 22] | > 100 fold
9 | Cc1ccc(C(C(=O)NCc2ccc(C(F)(F)F)nc2N2CCC(C)CC2)c2ccc(NS(C)(=O)=O)c(F)c2)cc1 (stereo not drawn) [Compound 36] | 3–8 fold
10 | Cc1ccccc1C(C(=O)NCc1ccc(C(F)(F)F)nc1SC1CCCCC1)c1ccc(NS(C)(=O)=O)c(F)c1 (stereo not drawn) [Compound 33] | > 140 fold
11 | CS(=O)(=O)Nc1ccc(C(C(=O)NCc2ccc(C(F)(F)F)nc2SC2CCCCC2)C2CCCC2)cc1F (stereo not drawn) [Compound 23] | > 100 fold
12 | Cc1ccc(C(C(=O)NCc2ccc(C(F)(F)F)nc2SC2CCCCC2)c2ccc(NS(C)(=O)=O)c(F)c2)cc1 (stereo not drawn) [Compound 37] | 3–8 fold
